According to patent US20050036977A1, “Taste-masked resinate and preparation thereof” (priority 2003, published 2005):
Where two headings read alike, the source gives them in different places.

Settings: initial risperidone 15 mg/mL, control value = solubility of risperidone
Experimental: The resin and risperidone were added to either water, citrate-phosphate buffer at pH 5.93 or a 1.7% gelatin solution (Table 1a). The initial concentration of risperidone in the slurries was 15 mg/mL. The control consisted of risperidone in each of the three aqueous media.
Each slurry was placed into centrifuge tubes, capped and mixed with a Burrell Wrist action shaker model 75 for 24 hours. After 24 hours, the slurry was centrifuged at a relative centrifugal force of 38,724 g for 18 minutes. The supernatant was collected, filtered through a 0.45 μl nylon filter and assayed for risperidone by an isocratic HPLC method. The concentration of drug present in the supernatant represented the amount of unbound or “free” risperidone.

SMILES: Cc1nc2n(c(=O)c1CCN1CCC(c3noc4cc(F)ccc34)CC1)CCCC2 [Risperidone (Control), risperidone]
- Concentration of Risperidone in Supernatant after 24 Hours Mixing (1.7% Gelatin): 1062.1 µg/mL
- Concentration of Risperidone in Supernatant after 24 Hours Mixing (Citrate-Phosphate Buffer (pH 5.93)): 4603.6 µg/mL
- Concentration of Risperidone in Supernatant after 24 Hours Mixing (Purified Water): 85.82 µg/mL
